From US20240043439A1, “COMPOUNDS AS C5AR INHIBITORS” (Kira Pharmaceuticals (Suzhou) Ltd., priority 2020, published 2024)

Legend:
C5aR [1] = target: T1, C5aR (Homo sapiens (Human), UniProt P21730); experiment: Calcium mobilization (U937/C5aR or HEK293/C5aR cells, FLIPR); type: cell-based; conditions: agonist human C5a at EC80, FLIPR
Outline: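 U937 or HEK293 cells expressing human C5aR, plated overnight, then preincubated 60 min with compound. After Fluo-4 Direct dye loading (50 min at 37 °C, 10 min at room temperature), intracellular calcium rise on FLIPR was triggered by human C5a agonist at EC80.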

C5aR [2] = target: T1, C5aR; experiment: Inhibition of C5a-C5aR binding determined by cell migration assay (U937/C5aR cells); type: cell-based; conditions: U937/C5aR cell migration towards human C5a, 180 min
Experimental: Migration assay was performed by using polycarbonate membrane with 3.0 µm pore (Corning). U937/C5aR cells were collected and washed twice by PBS; cells were suspended in Hank's balanced salt solution (HBSS)+1% FBS buffer at the density of 6×10^6 cells/ml. Cells were premixed with compound and added to insert well, ligand human C5a and compound were added to bottom well in order, gently mix, incubate for 30 min at 37° C., […]. Put insert plate into bottom well, migrate for 180 min at 37° C., […]. Gently remove the insert well, add 50 μl CellTiter-Glo (Promega), gently shaking for 5 min at room temperature, transfer 150 μl mixture to black plate and read luminescence intensity by
microplate reader (BioTek).

[3] = target: human C5a receptor (C5aR) (Homo sapiens (Human), UniProt P21730); experiment: Inhibition of C5a-C5aR binding (biotinylated human C5a, U937/C5aR cells, FACS)
Outline: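 U937 cells stably expressing human C5aR, 3×10^6 cells/ml in PBS+0.1% BSA, were co-incubated with compound and biotinylated human C5a (30 nM, working solution) on ice for 120 min. Bound ligand was stained with FITC-streptavidin for 30 min on ice and read by flow cytometry.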

human C5a receptor (C5aR), sequence (P21730 whole entry): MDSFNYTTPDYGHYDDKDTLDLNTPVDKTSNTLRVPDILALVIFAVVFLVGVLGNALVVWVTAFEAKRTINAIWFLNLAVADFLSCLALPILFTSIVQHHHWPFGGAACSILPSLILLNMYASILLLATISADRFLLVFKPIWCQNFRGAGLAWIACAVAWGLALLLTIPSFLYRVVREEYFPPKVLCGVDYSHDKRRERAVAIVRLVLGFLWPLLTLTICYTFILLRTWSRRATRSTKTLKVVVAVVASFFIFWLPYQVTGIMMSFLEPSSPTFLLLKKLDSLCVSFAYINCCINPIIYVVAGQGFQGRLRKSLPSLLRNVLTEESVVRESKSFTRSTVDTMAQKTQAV
T1 sequence (P21730 whole entry): as above

SMILES	IC50 (C5aR [1]) [µM]	IC50 (C5aR [2]) [µM]	IC50 [3] [µM]
Cc1cccc(F)c1C(=O)N1[C@@H]2COC[C@@H]2C[C@H](C(=O)Nc2ccc(N(C)C)cc2)[C@@H]1c1ccc(NC2CCCC2)cc1 [Compound 124, (2R,3S,4aR,7aS)-2-(4-(cyclopentylamino)phenyl)-N-(4-(dimethylamino)phenyl)-1-(2-fluoro-6-methylbenzoyl)octahydrofuro[3,4-b]pyridine-3-carboxamide]	2 to 10	0.05 to 0.5	0.05 to 0.5
Cc1ccc(NC(=O)C2C[C@@H]3CCC[C@@H]3N(C(=O)c3c(C)cccc3F)C2c2ccc(NC3CCOCC3)cc2)cc1C(F)(F)F (relative stereo) [Compound 88, cis-1-(2-fluoro-6-methylbenzoyl)-N-(4-methyl-3-(trifluoromethyl)phenyl)-2-(4-((tetrahydro-2H-pyran-4-yl)amino)phenyl)octahydro-1H-cyclopenta[b]pyridine-3-carboxamide]	< 0.05	< 0.05	0.05 to 0.5
Cc1cccc(F)c1C(=O)N1[C@@H]2CCC[C@@H]2C[C@H](C(=O)Nc2ccc3[nH]ncc3c2)[C@@H]1c1ccc(NC2CCOCC2)cc1 [Compound 96, (2R,3S,4aR,7aR)-1-(2-fluoro-6-methylbenzoyl)-N-(1H-indazol-5-yl)-2-(4-((tetrahydro-2H-pyran-4-yl)amino)phenyl)octahydro-1H-cyclopenta[b]pyridine-3-carboxamide]	2 to 10	0.05 to 0.5	< 0.05
Cc1cccc(F)c1C(=O)N1[C@@H]2CCC[C@@H]2C[C@H](C(=O)Nc2ccc(N(C)C)cc2)[C@@H]1c1ccc(NC2CCOCC2)cc1 [Compound 94, (2R,3S,4aR,7aR)-N-(4-(dimethylamino)phenyl)-1-(2-fluoro-6-methylbenzoyl)-2-(4-((tetrahydro-2H-pyran-4-yl)amino)phenyl)octahydro-1H-cyclopenta[b]pyridine-3-carboxamide]	2 to 10	0.05 to 0.5	< 0.05
Cc1ccc(NC(=O)[C@H]2CCCN(C(=O)c3c(C)cccc3F)[C@H]2C2CCC3(CCOC3)CC2)cc1C(F)(F)F (relative stereo) [Compound 203, cis-1-(2-fluoro-6-methylbenzoyl)-N-(4-methyl-3-(trifluoromethyl)phenyl)-2-(2-oxaspiro[4.5]decan-8-yl)piperidine-3-carboxamide]	2 to 10	0.5 to 2	–
Cc1ccc(NC(=O)[C@@H]2CC(O)CN(C(=O)c3c(C)cccc3F)[C@@H]2c2ccc(NC3CCCC3)cc2)cc1C(F)(F)F (relative stereo) [Compound 204, cis-2-(4-(cyclopentylamino)phenyl)-1-(2-fluoro-6-methylbenzoyl)-5-hydroxy-N-(4-methyl-3-(trifluoromethyl)phenyl)piperidine-3-carboxamide]	2 to 10	0.05 to 0.5	–
Cc1ccc(NC(=O)C2C[C@@H]3CN(C)C[C@@H]3N(C(=O)c3c(C)cccc3F)C2c2ccc(N(C)C3CCCC3)cc2)cc1C(F)(F)F (relative stereo) [Compound 144, cis-2-(4-(cyclopentyl(methyl)amino)phenyl)-1-(2-fluoro-6-methylbenzoyl)-6-methyl-N-(4-methyl-3-(trifluoromethyl)phenyl)octahydro-1H-pyrrolo[3,4-b]pyridine-3-carboxamide]	2 to 10	0.05 to 0.5	–
Cc1ccc(NC(=O)[C@H]2CC[C@@H]3Cc4ccccc4C(=O)N3C2c2ccc(NC3CCCC3)cc2)cc1C(F)(F)F (relative stereo) [Compound 43, cis-4-(4-(cyclopentylamino)phenyl)-N-(4-methyl-3-(trifluoromethyl)phenyl)-6-oxo-1,3,4,6,11,11a-hexahydro-2H-pyrido[1,2-b]isoquinoline-3-carboxamide]	2 to 10	> 5	–
Cc1ccc(NC(=O)C2C[C@@H]3CCC[C@@H]3N(C(=O)c3c(C)cccc3F)C2c2ccc(NC3CCCC3)cc2)cc1C(F)(F)F (relative stereo) [Compound 193, cis-2-(4-(cyclopentylamino)phenyl)-1-(2-fluoro-6-methylbenzoyl)-N-(4-methyl-3-(trifluoromethyl)phenyl)octahydro-1H-cyclopenta[b]pyridine-3-carboxamide]	< 0.05	0.05 to 0.5	–
Cc1cccc(F)c1C(=O)N1C2CCCC2CC(C(=O)Nc2ccc3c(cnn3C)c2)C1c1ccc(CN2CCC[C@@H]2C(F)(F)F)cc1 (stereo in doubt) [Compound 205, cis-1-(2-fluoro-6-methylbenzoyl)-N-(1-methyl-1H-indazol-5-yl)-2-(4-(((R)-2-(trifluoromethyl)pyrrolidin-1-yl)methyl)phenyl)octahydro-1H-cyclopenta[b]pyridine-3-carboxamide]	–	< 0.05	–
Cc1cccc(F)c1C(=O)N1CCC[C@H](c2nc3cc(C(C)(C)C)ccc3o2)[C@@H]1c1ccc(NC2CCCC2)cc1 [Compound 181, ((2R,3S)-3-(5-(tert-butyl)benzo[d]oxazol-2-yl)-2-(4-(cyclopentylamino)phenyl)piperidin-1-yl)(2-fluoro-6-methylphenyl)methanone]	2 to 10	> 5	–
Cc1cccc(F)c1C(=O)N1[C@@H]2CCC[C@@H]2C[C@H](C(=O)Nc2ccc3cnn(C)c3c2)[C@@H]1c1ccc(NC2CCCC2)cc1 (racemic) [Compound 66, cis-2-(4-(cyclopentylamino)phenyl)-1-(2-fluoro-6-methylbenzoyl)-N-(1-methyl-1H-indazol-6-yl)octahydro-1H-cyclopenta[b]pyridine-3-carboxamide]	0.05 to 0.5	< 0.05	–

Now from value to molecule:

IC50 (C5aR [1]) [µM]	IC50 (C5aR [2]) [µM]	IC50 [3] [µM]	SMILES
2 to 10	0.05 to 0.5	0.05 to 0.5	Cc1ccc(NC(=O)[C@H]2OCCN(C(=O)c3c(C)cccc3F)[C@H]2c2ccc(NC3CCCC3)cc2)cc1C(F)(F)F (relative stereo) [Compound 187, cis-3-(4-(cyclopentylamino)phenyl)-4-(2-fluoro-6-methylbenzoyl)-N-(4-methyl-3-(trifluoromethyl)phenyl)morpholine-2-carboxamide]
> 10	0.05 to 0.5	< 0.05	Cc1ccc(NC(=O)C2C[C@H]3CCC[C@H]3N(C(=O)c3cscn3)C2c2ccc(NC3CCCC3)cc2)cc1C(F)(F)F (relative stereo) [Compound 114, cis-2-(4-(cyclopentylamino)phenyl)-N-(4-methyl-3-(trifluoromethyl)phenyl)-1-(thiazole-4-carbonyl)octahydro-1H-cyclopenta[b]pyridine-3-carboxamide]
2 to 10	> 5	–	Cc1ccc(NC(=O)[C@H]2CCCN[C@H]2c2ccc(N(c3nccc4cccnc34)C3CCCC3)cc2)cc1C(F)(F)F [Compound 168, (2R,3S)-2-(4-(cyclopentyl(1,7-naphthyridin-8-yl)amino)phenyl)-N-(4-methyl-3-(trifluoromethyl)phenyl)piperidine-3-carboxamide]
2 to 10	2 to 5	–	Cc1ccc(NC(=O)[C@H]2CCCN(c3nccc4cccnc34)[C@H]2c2ccc(N(C(=O)OCc3ccccc3)C3CCCC3)cc2)cc1C(F)(F)F [Compound 164, benzyl cyclopentyl(4-((2R,3S)-3-((4-methyl-3-(trifluoromethyl)phenyl)carbamoyl)-1-(1,7-naphthyridin-8-yl)piperidin-2-yl)phenyl)carbamate]
2 to 10	> 5	–	Cc1ccc(NC(=O)[C@H]2CCCN(S(=O)(=O)c3c(F)c(F)c(F)c(F)c3F)[C@H]2c2ccc(NC3CCCC3)cc2)cc1C(F)(F)F [Compound 37, (2R,3S)-2-(4-(cyclopentylamino)phenyl)-N-(4-methyl-3-(trifluoromethyl)phenyl)-1-((perfluorophenyl)sulfonyl)piperidine-3-carboxamide]
2 to 10	–	2 to 5	Cc1ccc(NC(=O)[C@H]2CCCN(S(=O)(=O)c3ccccc3C#N)[C@H]2c2ccc(NC3CCCC3)cc2)cc1C(F)(F)F [Compound 30, (2R,3S)-1-((2-cyanophenyl)sulfonyl)-2-(4-(cyclopentylamino)phenyl)-N-(4-methyl-3-(trifluoromethyl)phenyl)piperidine-3-carboxamide]
2 to 10	–	2 to 5	Cc1ccc(NC(=O)[C@H]2CCCN(S(=O)(=O)c3ccccc3S(C)(=O)=O)[C@H]2c2ccc(NC3CCCC3)cc2)cc1C(F)(F)F [Compound 29, (2R,3S)-2-(4-(cyclopentylamino)phenyl)-N-(4-methyl-3-(trifluoromethyl)phenyl)-1-((2-(methylsulfonyl)phenyl)sulfonyl)piperidine-3-carboxamide]
2 to 10	–	2 to 5	Cc1ccc(NC(=O)[C@H]2CCCN(c3ncnc4cccnc34)[C@H]2c2ccc(N(C(=O)OCc3ccccc3)C3CCCC3)cc2)cc1C(F)(F)F [Compound 166, benzyl cyclopentyl(4-((2R,3S)-3-((4-methyl-3-(trifluoromethyl)phenyl)carbamoyl)-1-(pyrido[3,2-d]pyrimidin-4-yl)piperidin-2-yl)phenyl)carbamate]
2 to 10	–	2 to 5	Cc1ccc(NC(=O)[C@H]2CCCN(S(=O)(=O)c3ccc4ccccc4c3)[C@H]2c2ccc(NC3CCCC3)cc2)cc1C(F)(F)F [Compound 32, (2R,3S)-2-(4-(cyclopentylamino)phenyl)-N-(4-methyl-3-(trifluoromethyl)phenyl)-1-(naphthalen-2-ylsulfonyl)piperidine-3-carboxamide]
